Results from patent US20230017045A1, “PYRIDINE AND PYRIMIDINE CARBOXYLATE HERBICIDES AND METHODS OF USE THEREOF” (Dow AgroSciences LLC, priority 2017, published 2023).

System: test plant species
Test: Post-emergent herbicidal activity test (greenhouse, foliar spray, visual growth reduction)
Format: in vivo
Settings: post-emergence, 336 h, ALOMY: blackgrass (Alopecurus myosuroides), 140 g ai/ha, 14 days after application, read-out: Visual Growth Reduction (%) 14 Days After Application, ALOMY
In short: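 Visual scoring 14 d after treatment (0 = no injury, 100 = complete control) against nontreated and solvent-blank plants gave percent growth reduction. Foliar application used a track sprayer delivering 187 L/ha to seedlings at first or second true leaf stage, grown at 23–29 °C day, ~15 h photoperiod.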

Row | Compound | pest or weed control at 140 g/ha
1 | COC(=O)c1nc(-c2ccc3cc[nH]c3c2F)ccc1Cl [F69, Methyl 3-chloro-6-(7-fluoro-1H-indol-6-yl)picolinate] | 0 to 29%
2 | CCN(CC)c1c(Cl)ccc(-c2ccc(Cl)c(C(=O)OC)n2)c1F [F171] | 0 to 29%

Same assay, conditions: post-emergence, 336 h, AMARE: redroot pigweed (Amaranthus retroflexus), 140 g ai/ha, 14 days after application, read-out: Visual Growth Reduction (%) 14 Days After Application, AMARE

Row | Compound | pest or weed control at 140 g/ha
3 | COC(=O)c1nc(-c2ccc3cc[nH]c3c2F)ccc1Cl [F69, Methyl 3-chloro-6-(7-fluoro-1H-indol-6-yl)picolinate] | 0 to 29%
4 | CCN(CC)c1c(Cl)ccc(-c2ccc(Cl)c(C(=O)OC)n2)c1F [F171] | 0 to 29%

Same assay, conditions: post-emergence, 336 h, AVEFA: wild oat (Avena fatua), 140 g ai/ha, 14 days after application, read-out: Visual Growth Reduction (%) 14 Days After Application, AVEFA

Row | Compound | pest or weed control at 140 g/ha
5 | COC(=O)c1nc(-c2ccc3cc[nH]c3c2F)ccc1Cl [F69, Methyl 3-chloro-6-(7-fluoro-1H-indol-6-yl)picolinate] | 0 to 29%
6 | CCN(CC)c1c(Cl)ccc(-c2ccc(Cl)c(C(=O)OC)n2)c1F [F171] | 0 to 29%

Same assay, conditions: post-emergence, 336 h, CHEAL: lambsquarters (Chenopodium album), 140 g ai/ha, 14 days after application, read-out: Visual Growth Reduction (%) 14 Days After Application, CHEAL

Row | Compound | pest or weed control at 140 g/ha
7 | COC(=O)c1nc(-c2ccc3cc[nH]c3c2F)ccc1Cl [F69, Methyl 3-chloro-6-(7-fluoro-1H-indol-6-yl)picolinate] | 0 to 29%
8 | CCN(CC)c1c(Cl)ccc(-c2ccc(Cl)c(C(=O)OC)n2)c1F [F171] | 60 to 74%

Same assay, conditions: post-emergence, 336 h, CIRAR: canada thistle (Cirsium arvense), 140 g ai/ha, 14 days after application, read-out: Visual Growth Reduction (%) 14 Days After Application, CIRAR

Row | Compound | pest or weed control at 140 g/ha
9 | COC(=O)c1nc(-c2ccc3cc[nH]c3c2F)ccc1Cl [F69, Methyl 3-chloro-6-(7-fluoro-1H-indol-6-yl)picolinate] | 0 to 29%
10 | CCN(CC)c1c(Cl)ccc(-c2ccc(Cl)c(C(=O)OC)n2)c1F [F171] | 0 to 29%

Same assay, conditions: post-emergence, 336 h, CYPES: yellow nutsedge (Cyperus esculentus), 140 g ai/ha, 14 days after application, read-out: Visual Growth Reduction (%) 14 Days After Application, CYPES

Row | Compound | pest or weed control at 140 g/ha
11 | COC(=O)c1nc(-c2ccc3cc[nH]c3c2F)ccc1Cl [F69, Methyl 3-chloro-6-(7-fluoro-1H-indol-6-yl)picolinate] | 0 to 29%
12 | CCN(CC)c1c(Cl)ccc(-c2ccc(Cl)c(C(=O)OC)n2)c1F [F171] | 0 to 29%

Same assay, conditions: post-emergence, 336 h, DIGSA: crabgrass (Digitaria sanguinalis), 140 g ai/ha, 14 days after application, read-out: Visual Growth Reduction (%) 14 Days After Application, DIGSA

Row | Compound | pest or weed control at 140 g/ha
13 | COC(=O)c1nc(-c2ccc3cc[nH]c3c2F)ccc1Cl [F69, Methyl 3-chloro-6-(7-fluoro-1H-indol-6-yl)picolinate] | 0 to 29%
14 | CCN(CC)c1c(Cl)ccc(-c2ccc(Cl)c(C(=O)OC)n2)c1F [F171] | 0 to 29%

Same assay, conditions: post-emergence, 336 h, ECHCG: barnyardgrass (Echinochloa crus-galli), 140 g ai/ha, 14 days after application, read-out: Visual Growth Reduction (%) 14 Days After Application, ECHCG

Row | Compound | pest or weed control at 140 g/ha
15 | COC(=O)c1nc(-c2ccc3cc[nH]c3c2F)ccc1Cl [F69, Methyl 3-chloro-6-(7-fluoro-1H-indol-6-yl)picolinate] | 0 to 29%
16 | CCN(CC)c1c(Cl)ccc(-c2ccc(Cl)c(C(=O)OC)n2)c1F [F171] | 0 to 29%

Same assay, conditions: post-emergence, 336 h, IPOHE: ivy-leaf morning glory (Ipomoea hederacea), 140 g ai/ha, 14 days after application, read-out: Visual Growth Reduction (%) 14 Days After Application, IPOHE

Row | Compound | pest or weed control at 140 g/ha
17 | COC(=O)c1nc(-c2ccc3cc[nH]c3c2F)ccc1Cl [F69, Methyl 3-chloro-6-(7-fluoro-1H-indol-6-yl)picolinate] | 0 to 29%
18 | CCN(CC)c1c(Cl)ccc(-c2ccc(Cl)c(C(=O)OC)n2)c1F [F171] | 0 to 29%

Same assay, conditions: post-emergence, 336 h, KCHSC: kochia (Bassia scoparia), 140 g ai/ha, 14 days after application, read-out: Visual Growth Reduction (%) 14 Days After Application, KCHSC

Row | Compound | pest or weed control at 140 g/ha
19 | CCN(CC)c1c(Cl)ccc(-c2ccc(Cl)c(C(=O)OC)n2)c1F [F171] | 30 to 44%

Same assay, conditions: post-emergence, 336 h, ORYSA: rice (Oryza sativa), 140 g ai/ha, 14 days after application, read-out: Visual Growth Reduction (%) 14 Days After Application, ORYSA

Row | Compound | pest or weed control at 140 g/ha
20 | COC(=O)c1nc(-c2ccc3cc[nH]c3c2F)ccc1Cl [F69, Methyl 3-chloro-6-(7-fluoro-1H-indol-6-yl)picolinate] | 0 to 29%
21 | CCN(CC)c1c(Cl)ccc(-c2ccc(Cl)c(C(=O)OC)n2)c1F [F171] | 0 to 29%

Same assay, conditions: post-emergence, 336 h, SETFA: giant foxtail (Setaria faberi), 140 g ai/ha, 14 days after application, read-out: Visual Growth Reduction (%) 14 Days After Application, SETFA

Row | Compound | pest or weed control at 140 g/ha
22 | CCN(CC)c1c(Cl)ccc(-c2ccc(Cl)c(C(=O)OC)n2)c1F [F171] | 0 to 29%

Same assay, conditions: post-emergence, 336 h, SORVU: grain sorghum (Sorghum vulgare), 140 g ai/ha, 14 days after application, read-out: Visual Growth Reduction (%) 14 Days After Application, SORVU

Row | Compound | pest or weed control at 140 g/ha
23 | COC(=O)c1nc(-c2ccc3cc[nH]c3c2F)ccc1Cl [F69, Methyl 3-chloro-6-(7-fluoro-1H-indol-6-yl)picolinate] | 0 to 29%
24 | CCN(CC)c1c(Cl)ccc(-c2ccc(Cl)c(C(=O)OC)n2)c1F [F171] | 0 to 29%

Same assay, conditions: post-emergence, 336 h, STEME: common chickweed (Stellaria media), 140 g ai/ha, 14 days after application, read-out: Visual Growth Reduction (%) 14 Days After Application, STEME

Row | Compound | pest or weed control at 140 g/ha
25 | COC(=O)c1nc(-c2ccc3cc[nH]c3c2F)ccc1Cl [F69, Methyl 3-chloro-6-(7-fluoro-1H-indol-6-yl)picolinate] | 0 to 29%
26 | CCN(CC)c1c(Cl)ccc(-c2ccc(Cl)c(C(=O)OC)n2)c1F [F171] | 0 to 29%

Same assay, conditions: post-emergence, 336 h, TRZAS: wheat, spring (Triticum aestivum), 140 g ai/ha, 14 days after application, read-out: Visual Growth Reduction (%) 14 Days After Application, TRZAS

Row | Compound | pest or weed control at 140 g/ha
27 | CCN(CC)c1c(Cl)ccc(-c2ccc(Cl)c(C(=O)OC)n2)c1F [F171] | 0 to 29%
